Results taken from patent US20250188123A1, “PROTEASE INHIBITORS” (Regents of the University of Minnesota, priority 2022, published 2025).

Tested on: primary hippocampal neurons overexpressing P301S tau (Tau−/+) and littermate controls (Tau−/−)
Experiment: mEPSC recording in primary hippocampal neurons from PS19 transgenic mice expressing P301S tau
Type: cell-based, mouse
Conditions: 10 μM; for average amplitude of mEPSC responses in Tau−/+ versus Tau−/− neurons: 3 days in culture media; for cumulative curve of mEPSC amplitudes, Tau−/+ compared with Tau−/−: Mann-Whitney U test
Procedure: For these studies, PS19 transgenic mice expressing P301S mutant tau, one of the most used models of FTDP-17 were used (Feinstein S. Faculty Opinions recommendation of Synapse loss and microglial activation precede tangles in a P301S tauopathy mouse model. Faculty Opinions—Post-Publication Peer Review of the Biomedical Literature. 2007; and Takeuchi H, et al., PLoS One., 2011, 6, e21050). To detect functional deficits, primary hippocampal neurons were cultured from heterozygous transgenic mice overexpressing P301S tau (Feinstein S. Faculty Opinions recommendation of Synapse loss and microglial activation precede tangles in a P301S tauopathy mouse model. Faculty Opinions—Post-Publication Peer Review of the Biomedical Literature. 2007; and Takeuchi H, et al., PLoS One., 2011, 6, e21050) and littermate controls, (denoted Tau−/+ and Tau−/− respectively in FIG. 3), and recorded miniature excitatory synaptic currents (mEPSCs).
Briefly, a 22 mm diameter glass coverslip (0.09 mm thickness) was silicone-sealant-fastened to the bottom of a 35 mm culture dish with a bored hole of 20 mm in diameter and sterilized as described by Smith B R, et al., Acta Neuropathologica Communications, 2019, 7(1), 124. Coverslips were coated with poly-D-lysine. Hippocampi were dissected from neonatal Sprague-Dawley timed-pregnancy rats (Envigo) or appropriate transgenic mice and control littermates (see main text) at post-natal day 0-1. Hippocampi were enzymatically digested in Earle's Balanced Salt Solution (EBSS) supplemented with 1% glucose and cysteine-activated papain. Digestion was blocked with dilute BSA (bovine serum albumin) and chicken ovomucoid, and cells were rinsed in fresh EBSS and plated in plating medium (minimal essential medium with Earle's salts, 10% fetal bovine serum, 5% horse serum, 2 mM glutamine, 10 mM sodium pyruvate, 0.6% glucose, 100 U/ml penicillin and […] streptomycin) at 1.0×10^6 cells/dish. After 18 h cell adherence was established. Cells were then grown in a neurobasal medium (a 1:5 mixture of NbActiv4 to NbActiv1; BrainBits LLC) and incubated at 37° C. in a 5% CO2 biological incubator.
Miniature excitatory postsynaptic currents (mEPSCs) were recorded from cultured dissociated mouse hippocampal neurons at 17-21 DIV with a glass pipette (resistance ˜5 MΩ) at holding potentials of −65 mV on an Axopatch 200B amplifier (output gain=0.5; filtered at 1 kHz) as we previously described (Miller E C, et al., Eur J Neurosci., 2014, 39, 214-224). Input and series resistances were assessed and found to have no significant difference before and after recording time (5-20 mins). Recording sweeps lasted 200 ms and were sampled for every 1 s (pClamp, v10, RRID: SCR_011323). Neurons were bathed in bubble-oxygenated artificial cerebrospinal fluid (ACSF) at 23° C. with 100 μM APV (NMDA receptor antagonist), 1 μM TTX (sodium channel blocker), and 100 μM picrotoxin (GABAa receptor antagonist). Passive oxygen perfusion was established with medical-grade 95% O2-5% CO2. ACSF contained (in mM) 119 NaCl, 2.5 KCl, 5.0 CaCl2), 2.5 MgCl2, 26.2 NaHCO3, 1 NaH2PO4, and 11 D-glucose. The internal solution of the glass pipettes contained (in mM) 100 cesium gluconate, 0.2 EGTA, 0.5 MgCl2, 2 ATP, 0.3 GTP, and 40 HEPES. The pH of the internal solution was normalized to 7.2 with cesium hydroxide and diluted to a trace osmotic deficit in comparison to ACSF (˜300 mOsm). All analysis of recordings was performed using an automated detection software suit (Clampfit, 11.0.3, Molecular Devices, San Jose, CA, USA). Minimum analysis parameters were set at greater than 1 min stable recording time and events with amplitudes greater than 3 pA and smaller than 40 pA were included. A mEPSC event was identified by using a template which included a distinct fast-rising depolarization and slow-decaying repolarization. […]

CC(=O)N[C@H](C(=O)NC(CC(=O)O)C(=O)N[C@H](C(=O)N1CCc2cc(C)ccc2C1C(=O)N[C@H](C=O)CC(=O)O)C(C)C)C(C)C (stereo in doubt) [Compound 30a, (R)-3-((S)-2-acetamido-3-methylbutanamido)-4-(((S)-1-((S)-1-(((S)-1-carboxy-3-oxopropan-2-yl)carbamoyl)-6-methyl-3,4-dihydroisoquinolin-2(1H)-yl)-3-methyl-1-oxobutan-2-yl)amino)-4-oxobutanoic acid, reference compound]
average amplitude of mEPSC responses in Tau−/+ versus Tau−/− neurons: significantly smaller
cumulative curve of mEPSC amplitudes, Tau−/+ compared with Tau−/− (3 days): shifted to the left

Cc1ccc2c(c1)CCN(C(=O)[C@@H](NC(=O)[C@H](CCCC(=O)O)NC(=O)C1Cc3ccccc3N1)C(C)C)[C@@H]2C(=O)N[C@H](C#N)CC(=O)O (stereo partly drawn) [Compound 1, (8)-6-(((S)-1-((8)-1-(((S)-2-carboxy-1-cyanoethyl)carbamoyl)-6-methyl-3,4-dihydroisoquinolin-2(1H)-yl)-3-methyl-1-oxobutan-2-yl)amino)-5-((S)-indoline-2-carboxamido)-6-oxohexanoic acid]
average amplitudes of mEPSC responses of Tau−/+ neurons versus those treated with Compound 30a or 30b (3 days): significantly larger
average amplitude of mEPSC responses in Tau−/+ versus Tau−/− neurons: do not differ significantly
cumulative curve of mEPSC amplitudes, Tau−/+ compared with Tau−/− (3 days): not significantly shifted

CC(=O)N[C@H](C(=O)N[C@@H](CC(=O)O)C(=O)N[C@H](C(=O)N1CCc2cc(C)ccc2[C@H]1C(=O)N[C@H](C=O)CC(=O)O)C(C)C)C(C)C [Compound 30b, (S)-3-((S)-2-acetamido-3-methylbutanamido)-4-(((S)-1-((S)-1-(((S)-1-carboxy-3-oxopropan-2-yl)carbamoyl)-6-methyl-3,4-dihydroisoquinolin-2(1H)-yl)-3-methyl-1-oxobutan-2-yl)amino)-4-oxobutanoic acid, reference compound]
cumulative curve of mEPSC amplitudes, Tau−/+ compared with Tau−/− (3 days): shifted to the left but less markedly
